Values of other authors in patent US9199026B2, “Modular extracorporeal systems and methods for treating blood-borne diseases” (SOMERSET GROUP ENTERPRISES, INC., priority 2011, dated 2015).
Where two headings read alike, the source gives them in different places. One block for each compound: values may come before it.

Columns and labels:
[1] = not given; remark: listed apart in the source
[2] = system: bacteria; settings: for Spectrum: first line of the cell pair 'Spectrum, activity'; for activity (bactericidal / static): second line of the cell pair 'Spectrum
[3] = not given; remark: listed apart in the source

Percent removed By hemodialysis (in vivo): 24%
Compound: Nc1nc(NC2CC2)c2ncn([C@H]3C=C[C@@H](CO)C3)c2n1 [Abacavir]

Percent removed By CAPD ([1]; in vivo): Negligible (<4%)
Percent removed By hemodialysis (in vivo): 32-70%
Compound: CC1(C)S[C@@H]2[C@H](/N=C/N3CCCCCC3)C(=O)N2[C@H]1C(=O)O [Amdinocillin]

Compound: NCC[C@H](O)C(=O)N[C@@H]1C[C@H](N)[C@@H](O[C@H]2O[C@H](CN)[C@@H](O)[C@H](O)[C@H]2O)[C@H](O)[C@H]1O[C@H]1O[C@H](CO)[C@@H](O)[C@H](N)[C@H]1O [Amikacin]
Spectrum [2]: Gram negative,
activity (bactericidal / static) [2]: bactericidal
pKa ([3]; no group stated): 12.7

Percent removed By hemodialysis (in vivo): 30%
Compound: CC1(C)S[C@@H]2[C@H](NC(=O)[C@H](N)c3ccc(O)cc3)C(=O)N2[C@H]1C(=O)O [Amoxicillin]

pKa ([3]; no group stated): 8.1
Compound: CC[C@H]1OC(=O)[C@H](C)[C@@H](O[C@H]2C[C@@](C)(OC)[C@@H](O)[C@H](C)O2)[C@H](C)[C@@H](O[C@@H]2O[C@H](C)C[C@H](N(C)C)[C@H]2O)[C@](C)(O)C[C@@H](C)CN(C)[C@H](C)[C@@H](O)[C@]1(C)O [Azithromycin]

Percent removed By hemodialysis (in vivo): 90%
Compound: C[C@@H](O)[C@H]1C(=O)N2C(C(=O)[O-])=C(SC3Cn4cnc[n+]4C3)[C@H](C)[C@H]12 (stereo partly shown) [Biapenem]

Percent removed By hemodialysis (in vivo): 50%
Compound: CC1(C)S[C@@H]2[C@H](NC(=O)C(C(=O)O)c3ccccc3)C(=O)N2[C@H]1C(=O)O (stereo partly shown) [Carbenicillin]

Percent removed By hemodialysis (in vivo): 33%
Compound: N[C@@H](C(=O)N[C@@H]1C(=O)N2C(C(=O)O)=C(Cl)CS[C@H]12)c1ccccc1 [Cefaclor]

Percent removed By CAPD ([1]; CAPD): 20%
Percent removed By hemodialysis (hemodialysis): 50%
Compound: Cc1nnc(SCC2=C(C(=O)O)N3C(=O)[C@@H](NC(=O)Cn4cnnn4)[C@H]3SC2)s1 [Cefazolin]

Percent removed By CAPD ([1]; CAPD): 26%
Percent removed By hemodialysis (hemodialysis): 40-70%
Compound: CO/N=C(\C(=O)N[C@@H]1C(=O)N2C(C(=O)[O-])=C(C[N+]3(C)CCCC3)CS[C@H]12)c1csc(N)n1 [Cefipime]

Percent removed By CAPD ([1]; in vivo): Negligible (<10%)
Percent removed By hemodialysis (in vivo): 16-51%
Compound: CO/N=C(\C(=O)N[C@@H]1C(=O)N2C(C(=O)O)=C(CSc3nnnn3C)CS[C@H]12)c1csc(N)n1 [Cefmenoxime]

Percent removed By hemodialysis (in vivo): 60%
Compound: CO[C@@]1(NC(=O)CSCC#N)C(=O)N2C(C(=O)O)=C(CSc3nnnn3C)CS[C@@H]21 [Cefmetazole]

Percent removed By CAPD ([1]; in vivo): Negligible (15%)
Percent removed By hemodialysis (in vivo): 50%
Compound: CO/N=C(\C(=O)N[C@@H]1C(=O)N2C(C(=O)O)=C(CSc3nc(C)c(CC(=O)O)s3)CS[C@H]12)c1csc(N)n1 [Cefodizime]

Percent removed By CAPD ([1]; in vivo): Negligible
Percent removed By hemodialysis (in vivo): 20-50%
Compound: NCc1ccccc1CC(=O)N[C@@H]1C(=O)N2C(C(=O)O)=C(CSc3nnnn3CC(=O)O)CS[C@H]12 [Ceforanide]

Percent removed By CAPD ([1]; in vivo): Negligible
Percent removed By hemodialysis (in vivo): 50%
Compound: CO[C@@]1(NC(=O)Cc2cccs2)C(=O)N2C(C(=O)O)=C(COC(N)=O)CS[C@@H]21 [Cefoxitin]

Percent removed By CAPD ([1]; in vivo): Negligible (12%)
Percent removed By hemodialysis (in vivo): 32-48%
Compound: CO/N=C(\C(=O)N[C@@H]1C(=O)N2C(C(=O)[O-])=C(C[n+]3cccc4c3CCC4)CS[C@H]12)c1csc(N)n1 [Cefpirome]

Percent removed By hemodialysis (in vivo): 50%
Compound: COCC1=C(C(=O)O)N2C(=O)[C@@H](NC(=O)/C(=N\OC)c3csc(N)n3)[C@H]2SC1 [Cefpodoxime]

Percent removed By hemodialysis (in vivo): 55%
Compound: CC=CC1=C(C(=O)O)N2C(=O)[C@@H](NC(=O)[C@H](N)c3ccc(O)cc3)[C@H]2SC1 [Cefprozil]

Percent removed By hemodialysis (in vivo): 50%
Compound: COC1=C(C(=O)O)N2C(=O)[C@@H](NC(=O)[C@H](N)C3=CCC=CC3)[C@H]2SC1 [Cefroxadine]

Percent removed By hemodialysis (hemodialysis): 60%
Compound: NC(=O)c1cc[n+](CC2=C(C(=O)O)N3C(=O)[C@@H](NC(=O)[C@@H](c4ccccc4)S(=O)(=O)[O-])[C@H]3SC2)cc1 [Cefsulodin]

Percent removed By CAPD ([1]; in vivo): Negligible
Percent removed By hemodialysis (in vivo): 50%
Compound: CC(C)(O/N=C(\C(=O)N[C@@H]1C(=O)N2C(C(=O)[O-])=C(C[n+]3ccccc3)CS[C@H]12)c1csc(N)n1)C(=O)O [Ceftazidime]

Percent removed By hemodialysis (in vivo): 39%
Compound: Nc1nc(/C(=C/CC(=O)O)C(=O)N[C@@H]2C(=O)N3C(C(=O)O)=CCS[C@H]23)cs1 [Ceftibuten]

Percent removed By CAPD ([1]; in vivo): Negligible (16%)
Percent removed By hemodialysis (in vivo): 50%
Compound: CO/N=C(\C(=O)N[C@@H]1C(=O)N2C(C(=O)O)=CCS[C@H]12)c1csc(N)n1 [Ceftizoxime]

pKa ([3]; (NH2)): 3.2
Compound: CO/N=C(\C(=O)N[C@@H]1C(=O)N2C(C(=O)O)=C(CSc3nc(=O)c(=O)[nH]n3C)CS[C@H]12)c1csc(N)n1 [Ceftriaxone sodium]

Percent removed By CAPD ([1]; in vivo): Negligible (4.5%)
Percent removed By hemodialysis (in vivo): 40%
Compound: CO/N=C(\C(=O)N[C@@H]1C(=O)N2C(C(=O)O)=C(CSc3nc(=O)c(=O)[nH]n3C)CS[C@H]12)c1csc(N)n1 [Ceftriaxone]

pKa ([3]; no group stated): 2.5
Compound: CO/N=C(\C(=O)N[C@@H]1C(=O)N2C(C(=O)O)=C(COC(N)=O)CS[C@H]12)c1ccco1 [Cefuroxime sodium]

Percent removed By CAPD ([1]; in vivo): 20%
Compound: CO/N=C(\C(=O)N[C@@H]1C(=O)N2C(C(=O)O)=C(COC(N)=O)CS[C@H]12)c1ccco1 [Cefuroxime]

Percent removed By hemodialysis (in vivo): 50%
Compound: CC(=O)OCC1=C(C(=O)O)N2C(=O)[C@@H](NC(=O)CC#N)[C@H]2SC1 [Cephacetrile]

Percent removed By CAPD ([1]; in vivo): 30%
Percent removed By hemodialysis (in vivo): 50-75%
Compound: CC1=C(C(=O)O)N2C(=O)[C@@H](NC(=O)[C@H](N)c3ccccc3)[C@H]2SC1 [Cephalexin]

Percent removed By hemodialysis (in vivo): 50%
Compound: CC(=O)OCC1=C(C(=O)O)N2C(=O)[C@@H](NC(=O)Cc3cccs3)[C@H]2SC1 [Cephalothin]

Compound: CC(=O)OCC1=C(C(=O)O)N2C(=O)[C@@H](NC(=O)CSc3ccncc3)[C@H]2SC1 [Cephapirin]
Percent removed By hemodialysis (hemodialysis): 20%

Percent removed By CAPD ([1]; CAPD): Negligible
Percent removed By hemodialysis (hemodialysis): 50%
Compound: Nc1ccn(C[C@@H](CO)OCP(=O)(O)O)c(=O)n1 [Cidofovir]

Compound: O=C(O)c1cn(C2CC2)c2cc(N3CCNCC3)c(F)cc2c1=O [Ciprofloxalin]
activity (bactericidal / static) [2]: bactericidal

Compound: CCCCCCCCCC(=O)N[C@@H](Cc1c[nH]c2ccccc12)C(=O)N[C@H](CC(N)=O)C(=O)N[C@@H](CC(=O)O)C(=O)N[C@@H]1C(=O)NCC(=O)N[C@@H](CCCN)C(=O)N[C@@H](CC(=O)O)C(=O)N[C@H](C)C(=O)N[C@@H](CC(=O)O)C(=O)NCC(=O)N[C@H](CO)C(=O)N[C@@H]([C@H](C)CC(=O)O)C(=O)N[C@@H](CC(=O)c2ccccc2N)C(=O)O[C@@H]1C [Daptomycin]
Spectrum [2]: Gram positive,
activity (bactericidal / static) [2]: bactericidal

Percent removed By hemodialysis (in vivo): 30-40%
Compound: CN(C)CCn1nnnc1SCC1=C(C(=O)O)N2C(=O)[C@@H](NC(=O)Cc3csc(N)n3)[C@H]2SC1 [Defotiam]

Percent removed By CAPD ([1]; in vivo): Negligible
Percent removed By hemodialysis (in vivo): 80-90%
Compound: C[C@@H](O)[C@H]1C(=O)N2C(C(=O)O)=C(SCCN=CN)C[C@H]12 [Imipenem]

Percent removed By hemodialysis (in vivo): 75%
Compound: NNC(=O)c1ccncc1 [Isoniazid]

Percent removed By hemodialysis (hemodialysis): 33%
Compound: CC(=O)NC[C@H]1CN(c2ccc(N3CCOCC3)c(F)c2)C(=O)O1 [Linezolid]

Percent removed By hemodialysis (in vivo): 50-70%
Compound: C[C@@H](O)[C@H]1C(=O)N2C(C(=O)O)=C(S[C@@H]3CN[C@H](C(=O)N(C)C)C3)[C@H](C)[C@H]12 [Meropenem]

Percent removed By CAPD ([1]; in vivo): 24%
Percent removed By hemodialysis (in vivo): 20-25%
Compound: CC1(C)S[C@@H]2[C@H](NC(=O)[C@H](NC(=O)N3CCN(S(C)(=O)=O)C3=O)c3ccccc3)C(=O)N2[C@H]1C(=O)O [Mezlocillin]

Percent removed By CAPD ([1]; in vivo): Negligible (15-20%)
Percent removed By hemodialysis (in vivo): 30-50%
Compound: CO[C@@]1(NC(=O)C(C(=O)O)c2ccc(O)cc2)C(=O)N2C(C(=O)O)=C(CSc3nnnn3C)CO[C@@H]21 (stereo partly shown) [Moxalactam]

Compound: Nc1ccc(C(=O)O)c(O)c1 [Para-aminosalicylic Acid]
Percent removed By hemodialysis (hemodialysis): 50%

Compound: CC1(C)S[C@@H]2[C@H](NC(=O)Cc3ccccc3)C(=O)N2[C@H]1C(=O)O [Penicillin G]
pKa ([3]; no group stated): 2.8

Percent removed By hemodialysis (in vivo): 50%
Compound: CN[C@@H]1[C@H](O)[C@H](NC)[C@H]2O[C@@]3(O)C(=O)C[C@@H](C)O[C@H]3O[C@@H]2[C@H]1O [Spectinomycin]

Percent removed By CAPD ([1]; CAPD): Negligible (6%)
Percent removed By hemodialysis (hemodialysis): 50%
Compound: CO[C@@]1(NC(=O)C(C(=O)O)c2ccsc2)C(=O)N2[C@@H](C(=O)O)C(C)(C)S[C@@H]21 (stereo partly shown) [Temocillin]

Compound: CN(C)c1cc(NC(=O)CNC(C)(C)C)c(O)c2c1C[C@H]1C[C@H]3[C@H](N(C)C)C(O)=C(C(N)=O)C(=O)[C@@]3(O)C(O)=C1C2=O [Tigecycline]
Spectrum [2]: Broad,
activity (bactericidal / static) [2]: static
pKa ([3]; no group stated): 4.4

Compound: NC[C@H]1O[C@H](O[C@H]2[C@H](O)[C@@H](O[C@H]3O[C@H](CO)[C@@H](O)[C@H](N)[C@H]3O)[C@H](N)C[C@@H]2N)[C@H](N)C[C@@H]1O [Tobramycin]
Spectrum [2]: Gram negative,
activity (bactericidal / static) [2]: bactericidal

Percent removed By CAPD ([1]; in vivo): Negligible (7%)
Percent removed By hemodialysis (in vivo): 50%
Compound: COc1cc(Cc2cnc(N)nc2N)cc(OC)c1OC [Trimethoprim]

Compound: N[C@@H]1[C@H]2CN(c3nc4c(cc3F)c(=O)c(C(=O)O)cn4-c3ccc(F)cc3F)C[C@@H]12 [Trovafloxacin]
Spectrum [2]: Broad,
activity (bactericidal / static) [2]: bactericidal

Compound: Colistin
Spectrum [2]: Gram negative,
activity (bactericidal / static) [2]: bactericidal
pKa ([3]; no group stated): 12.1

Compound: Gentamycin
Spectrum [2]: Gram negative,
activity (bactericidal / static) [2]: bactericidal

Compound: Penicillin
Percent removed By hemodialysis (hemodialysis): 50%

Compound: Polymixin B
Spectrum [2]: G−,
activity (bactericidal / static) [2]: bactericidal
